Where two headings read alike, the source gives them in different places.

This note sets out measurements from US20230159583A1, “COMPOUND FOR TREATING GOUT, PREPARATION METHOD THEREFOR, AND USE THEREOF” (Huazhong Pharmaceutical Co., Ltd., priority 2020, published 2023).

Holding throughout (type): in vivo
The subject of series [1] is rat paw swelling induced by monosodium urate (MSU). Put plainly: rat paw swelling model induced by monosodium urate (MSU). The note with it: for inhibition in vivo at 90 mg/kg / inhibition in vivo at 0.36 mg/kg / inhibition in vivo at 1.8 mg/kg / inhibition in vivo at 9 mg/kg / change in vivo at 90 mg/kg: Rattus norvegicus, po; for inhibition in vivo at 90 mg/kg / inhibition in vivo at 0.36 mg/kg / inhibition in vivo at 1.8 mg/kg / inhibition in vivo at 9 mg/kg: 1 h, read-out: Swelling inhibition rate; for inhibition in vivo at 0.36 mg/kg: dosage 0.36 mg/kg; for inhibition in vivo at 1.8 mg/kg: dosage 1.8 mg/kg; for inhibition in vivo at 9 mg/kg: dosage 9 mg/kg; for change in vivo at 90 mg/kg: read-out: Swelling degree; for Mean volume of paw after administration: 1 h after onset of inflammation (50 μL 2% MSU). The source says:
Gout is a disease unique to human, and gouty arthritis is an inflammatory reaction caused by the deposition of monosodium urate (MSU) in local joint tissues. Since purine metabolism pathways in some mammals such as mice and rabbits are different from those in humans, it is impossible to construct a gouty arthritis model by the method of interfering with purine metabolism disorders, so the most direct method for causing gouty arthritis is to directly inject MSU into the joint cavity of the model animal. The model is only used for simulating local joint inflammation of gout, is suitable for observation of local arthritis symptoms, is a common method for screening anti-inflammatory effects of gout drugs at present, and has the advantages of stability, easy operation and the like. (Reference: Li Na, Hua Long, and Yuan Hui. Research progress of gout animal models [J]. Medical theory and practice, 2016(24).
The anti-gout effect of the compound prepared in the above Example was detected by using a rat paw swelling model induced by monosodium urate (MSU), and the control sample was methylprednisolone.
Experimental method: MSU was used as an inflammatory agent, injected subcutaneously into the hind paws of rats to cause paw swelling, and then the volume of the paws was measured, and the swelling rates and swelling inhibition rates of the treatment group and the control group were compared. On the day of the experiment, the volume of right hind paw (ml) of each rat was measured firstly, and then after the onset of inflammation, the volume of right hind paw was measured so that the difference of volume of paw before and after inflammation was swelling degree, and the swelling inhibition rate of paw (swelling inhibition rate %=(C−T)/C*100%); C=swelling rate of the control group %, and T=swelling rate of the treatment group) was calculated. This method is one of the commonly used methods for screening anti-inflammatory effects of gout drugs, and the model is stable and easy to operate.
(2) One week before the subcutaneous injection of MSU into the feet and soles of the rats, the rats were given different doses of the test drugs, and the drugs were given by gavage once a day, for seven consecutive days. The circumference of the right hind paw was marked and measured before the last administration, and the average value of the two measurements was taken as the standard. 1 h after the last administration, animals in other groups were given 50 μL of 2% MSU in addition to the blank control group, and the paw circumference was measured 1 h after the onset of inflammation. […]

For series [2], the system named is ICR mice. The note with it: p.o. The procedure:
The experiment was designed according to the “Technical Guideline for Acute Toxicity Test of Chemical Drugs” issued by the State Food and Drug Administration in March 2005. The doses administered were 4 g/kg, 4.91 g/kg, 6.14 g/kg, 7.68 g/kg, 9.6 g/kg, 12 g/kg, and 15 g/kg (the dose could be adjusted according to the actual test results), 12 ICR mice per dose group. If the administration volume is greater than 0.5 ml, it is better to perform the drug administration in two or more times (Note: according to the national standard GB 15193.3-2014, if multiple drug administrations are required, the time interval should be 4 h to 6 h each time, and the patient should be fasted on the day before drug administration).

In series [3] the test system is carrageenan-induced mouse paw swelling. As to the kind of experiment: carrageenan-induced mouse paw swelling model. As to conditions: for Circumference of the paw after administration: 180 min after onset of inflammation (0.5% carrageenan); for inhibition in vivo at 0.26 mg/kg / inhibition in vivo at 13 mg/kg / inhibition in vivo at 130 mg/kg / change in vivo at 130 mg/kg: Mus musculus, po, 3 h; for inhibition in vivo at 0.26 mg/kg: dosage 0.26 mg/kg; for inhibition in vivo at 0.26 mg/kg / inhibition in vivo at 13 mg/kg / inhibition in vivo at 130 mg/kg: read-out: Swelling inhibition rate; for inhibition in vivo at 13 mg/kg: dosage 13 mg/kg; for change in vivo at 130 mg/kg: read-out: Swelling degree. Here is the method: The anti-inflammatory effects of the compounds prepared in the above Examples were detected using a carrageenan-induced mouse paw swelling model, and the control sample was methylprednisolone:
Carrageenan-induced mouse paw swelling model is a classical acute inflammation model commonly used for evaluating or screening anti-inflammatory effects of drugs. When carrageenan is injected into the paw of mice, a series of reactions similar to human acute inflammation such as local capillary dilatation, increased vascular permeability, exudation and edema can be caused, so the model can be widely used in the evaluation of new drugs.
Reference for experimental method: Yang Huan, Cheng Xiao, Wang Yuehua, Du Guanhua. Effects of esculin on the swelling of toes and inflammation induced by carrageenan in mice [J]. Chinese Journal of New Drugs, 2016(25):2322.
On the day of the experiment, the circumference of right hind paw (cm) of each mouse was measured firstly, and then, after the onset of inflammation, the circumference of right hind paw was measured so that the difference of the circumferences of the paws before and after inflammation was swelling degree, and the swelling inhibition rate of paw (swelling inhibition rate %=(C−T)/C*100%); C=swelling rate of the control group %, and T=swelling rate of the treatment group) was calculated.
(2) Gavage administration was performed once a day for seven consecutive days. The circumference of the right hind paw was marked and measured before the last administration, and the average value of the two measurements was taken as the standard. 30 min after the last administration, 20 μL/mice of 0.5% carrageenan was injected into the right hind ankle of the mice to induce inflammation, and the circumference of paw was measured 180 min after the onset of inflammation. […]
In general terms: Carrageenan injected into the paw causes an acute inflammation.

The mark [4] stands for this setting: SD rats, 90 mg/kg by gavage once a day for seven days, 1 h after onset of inflammation.
The mark [5] stands for this setting: rat, MSU-induced paw swelling, dosage 90 mg/kg.
Setting [6] is: SD rats, 90 mg/kg by gavage once a day for seven days.
The mark [7] stands for this setting: ICR mice, 130 mg/kg by gavage once a day for seven days, 180 min after onset of inflammation.
The mark [8] stands for this setting: ICR mice, 130 mg/kg by gavage once a day for seven days.
[9] abbreviates: mouse, carrageenan-induced paw swelling.
Where [10] appears, read: mouse, carrageenan-induced paw swelling, dosage 130 mg/kg.

For `CC(=O)OC/C(=N\O)[C@@]1(O)CC[C@H]2[C@@H]3CCC4=CC(=NO)CC[C@]4(C)[C@H]3[C@@H](O)C[C@@]21C` [Example 5, (2E)-2-((8S,9S,10R,11S,13S,14S,17R)-11,17-dihydroxy-3-(hydroxyimino)-10,13-dimethyl-2,3,6,7,8,9,10,11,12,13,14,15,16,17-tetrahydro-1H-cyclopentane[α]phenanthroyl)-2-(hydroxyimino)ethyl acetate], the inhibition in vivo at 90 mg/kg amounted to 82.1% in series [1] (setting [4]) and 80.1% in series [1] (setting [5]). Also, the inhibition in vivo at 0.36 mg/kg in series [1] (rat, MSU-induced paw swelling) worked out at 23.4%. The inhibition in vivo at 1.8 mg/kg in series [1] (rat, MSU-induced paw swelling) came to 35.3%. Also, in series [1] (rat, MSU-induced paw swelling), the inhibition in vivo at 9 mg/kg was 56.3%. In series [1] (setting [4]), the change in vivo at 90 mg/kg was 59%. The Swelling value stood at 0.72 mL in series [1] (setting [4]) and 0.04 cm in series [3] (setting [7]). For the same compound, the “Mean volume of paw after administration” value in series [1] (setting [6]) was 1.94 mL. The Mortality in series [2] (4 g/kg) is listed as 0/12; in series [2] (4.91 g/kg) it was 0/12; in series [2] (6.14 g/kg), 0/12; in series [2] (7.68 g/kg) it was 0/12; in series [2] (9.6 g/kg), 1/12; in series [2] (12 g/kg), 2/12. Besides, the Mortality in series [2] (15 g/kg) is recorded as 4/12. In addition, in series [3] (setting [8]), the “Circumference of the paw after administration” value (“Circumference of the paw” below) is 1.52 cm. For the same compound, in series [3] (setting [9]), the inhibition in vivo at 0.26 mg/kg is 13.5%. In series [3] (setting [9]), the inhibition in vivo at 13 mg/kg is 56.8%. Also, the values for the inhibition in vivo at 130 mg/kg in series [3] (setting [10]) and in series [3] (setting [7]) were 88.1% and 86%, respectively. Moreover, the change in vivo at 130 mg/kg in series [3] (setting [7]) worked out at 2.7%.

Consider `C[C@H]1C[C@@H]2[C@H]([C@@H](O)C[C@@]3(C)[C@H]2CC[C@]3(O)/C(CO)=N/O)[C@@]2(C)C=CC(=NO)C=C12` [Example 1, (6S,8S, 9S, 10R, 11S, 13S, 14S, 17R)-11,17-dihydroxy-17-((E)-2-hydroxy-1-(hydroxyimino)ethyl)-6,10,13-trimethyl-6,7,8,9,10,11,12,13,14,15,16,17-dodecahydro-3H-cyclopentane[α]phenanthrene-3-one oxime], for which the inhibition in vivo at 90 mg/kg came out at 99.7% in series [1] (setting [4]) and 97.4% in series [1] (setting [5]). The inhibition in vivo at 0.36 mg/kg in series [1] (rat, MSU-induced paw swelling) stood at 12.1%. Also, the inhibition in vivo at 1.8 mg/kg in series [1] (rat, MSU-induced paw swelling) amounted to 45.2%. In addition, the inhibition in vivo at 9 mg/kg in series [1] (rat, MSU-induced paw swelling) was 68.2%. In series [1] (setting [4]), the change in vivo at 90 mg/kg was determined as 0.85%. Also, the Swelling value was 0.01 mL in series [1] (setting [4]) and 0.01 cm in series [3] (setting [7]). Moreover, the “Mean volume of paw after administration” value in series [1] (setting [6]) amounted to 1.19 mL. The Mortality in series [2] (4 g/kg), in series [2] (4.91 g/kg), in series [2] (6.14 g/kg), in series [2] (7.68 g/kg), in series [2] (9.6 g/kg) and in series [2] (12 g/kg) was 0/12 in each case. For the same compound, the Mortality in series [2] (15 g/kg) is reported as 0/12. Further, the “Circumference of the paw” value in series [3] (setting [8]) was determined as 1.46 cm. In addition, the inhibition in vivo at 0.26 mg/kg in series [3] (setting [9]) stood at 10.3%. Also, the inhibition in vivo at 13 mg/kg in series [3] (setting [9]) amounted to 58.1%. Further, the inhibition in vivo at 130 mg/kg in series [3] (setting [10]) worked out at 97.4%; in series [3] (setting [7]), 96.4%. In series [3] (setting [7]), the change in vivo at 130 mg/kg came out at 0.69%.

For the compound `C[C@]12C=CC(=NO)C=C1CC[C@@H]1[C@@H]2[C@@H](O)C[C@@]2(C)[C@H]1CC[C@]2(O)/C(CO)=N/O` [Example 3, (8S,9S,10R,11S,13S,14S,17R)-11,17-dihydroxy-17-((E)-2-hydroxy (hydroxyimino)ethyl)-10,13-dimethyl-6,7,8,9,10,11,12,13,14,15,16,17-dodecahydro-3H-cyclopentane[α]phenanthrene-3-one oxime], the inhibition in vivo at 90 mg/kg in series [1] (setting [4]) is 80.5%; in series [1] (setting [5]), 82.1%. Besides, the inhibition in vivo at 0.36 mg/kg in series [1] (rat, MSU-induced paw swelling) was 10.2%. For the same compound, the inhibition in vivo at 1.8 mg/kg in series [1] (rat, MSU-induced paw swelling) was 25.2%. The inhibition in vivo at 9 mg/kg in series [1] (rat, MSU-induced paw swelling) stood at 32.1%. Moreover, the change in vivo at 90 mg/kg in series [1] (setting [4]) stood at 64.2%. Moreover, the results for the Swelling value in series [1] (setting [4]) and in series [3] (setting [7]) were 0.77 mL and 0.05 cm, respectively. The “Mean volume of paw after administration” value in series [1] (setting [6]) was determined as 1.97 mL. For the same compound, the Mortality in series [2] (4 g/kg), in series [2] (4.91 g/kg), in series [2] (6.14 g/kg), in series [2] (7.68 g/kg), in series [2] (9.6 g/kg) and in series [2] (12 g/kg) was 0/12 each time. Also, the Mortality in series [2] (15 g/kg) is given as 1/12. Besides, the “Circumference of the paw” value in series [3] (setting [8]) came to 1.53 cm. In addition, in series [3] (setting [9]), the inhibition in vivo at 0.26 mg/kg is 9.12%. Besides, in series [3] (setting [9]), the inhibition in vivo at 13 mg/kg is 42.3%. The inhibition in vivo at 130 mg/kg in series [3] (setting [10]) is 78.2%; in series [3] (setting [7]) it was 82.5%. Also, the change in vivo at 130 mg/kg in series [3] (setting [7]) came to 3.38%.
